This test deals with T1, IDO1 (Homo sapiens, UniProt P14902).
T1 construct: endogenous in cells; host or cells: HeLa cells (ATCC), IFNgamma-induced
As to the kind of experiment: IDO1 cell-based assay (HeLa cells, IFNgamma-induced, N-formylkynurenine/L-tryptophan by RFMS). The following applies: 10 ng/mL IFNgamma, 24 hours. A digest of the protocol:
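HeLa cells stimulated with 10 ng/mL IFNgamma and exposed to compound (0.5% DMSO final) for 24 h at 37 °C. Conditioned media deproteinized, then N-formylkynurenine and L-tryptophan quantified by RapidFire MS with deuterated tryptophan internal standard; IC50 by curve fitting. Viability checked by CellTiter-Glo.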

We go through 30 compounds from US11173145B2, “Compounds useful as inhibitors of indoleamine 2,3-dioxygenase and/or tryptophan dioxygenase” (Board of Regents, The University of Texas System, priority 2017, dated 2021).

pIC50: −log10 of the molar value.

T1 sequence (P14902 whole entry): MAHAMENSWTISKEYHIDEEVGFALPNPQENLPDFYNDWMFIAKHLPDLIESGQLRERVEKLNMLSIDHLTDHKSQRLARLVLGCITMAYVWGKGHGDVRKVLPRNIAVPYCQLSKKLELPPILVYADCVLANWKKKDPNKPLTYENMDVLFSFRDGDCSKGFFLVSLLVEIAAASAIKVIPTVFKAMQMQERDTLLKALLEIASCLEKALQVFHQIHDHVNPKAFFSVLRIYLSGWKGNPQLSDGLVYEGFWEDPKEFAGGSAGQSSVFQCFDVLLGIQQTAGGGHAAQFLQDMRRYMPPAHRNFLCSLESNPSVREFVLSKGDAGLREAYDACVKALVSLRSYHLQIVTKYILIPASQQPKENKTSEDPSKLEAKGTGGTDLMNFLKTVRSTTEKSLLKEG

`CC(C)(NC(=O)c1ccc(C#N)cc1)C1[C@H]2CC(n3ncc(=O)c4ccccc43)C[C@@H]12` (stereo partly drawn) [Compound 87, 4-cyano-N-(2-((1R,5S)-3-(4-oxocinnolin-1(4H)-yl)bicyclo[3.1.0]hexan-6-yl)propan-2-yl)benzamide] gave a negative-log IC50 (pIC50) of more than 6.70.
Next, `CCC(NC(=O)c1ccc(Cl)cc1)[C@H]1[C@@H]2C[C@@H](Oc3ncnc4ccc(F)cc34)C[C@@H]21` (stereo partly drawn) [Compound 5, 4-chloro-N-(1-((1R,3s,5S,6r)-3-((6-fluoroquinazolin-4-yl)oxy)bicyclo[3.1.0]hexan-6-yl)propyl)benzamide]: more than 6.70; `Cc1cccnc1O[C@@H]1C[C@@H]2[C@H](C1)[C@H]2C(C)NC(=O)c1ccc(Cl)cc1` (stereo partly drawn) [Compound 71, 4-chloro-N-(1-((1R,3s,5S,6r)-3-((3-methylpyridin-2-yl)oxy)bicyclo[3.1.0]hexan-6-yl)ethyl)benzamide]: more than 6.70.
Under `CC(C)(NC(=O)c1ccc(C#N)cc1)C1[C@H]2CC(Oc3cnnc4ccccc34)C[C@@H]12` (stereo partly drawn) [Compound 88, N-(2-((1R,5S)-3-(cinnolin-4-yloxy)bicyclo[3.1.0]hexan-6-yl)propan-2-yl)-4-cyanobenzamide] stands more than 6.70; under `CCC(NC(=O)c1ccc(Cl)cc1)[C@H]1[C@@H]2C[C@@H](n3ncc4cnccc43)C[C@@H]21` (stereo partly drawn) [Compound 51, N-(1-((1R,3s,5S,6r)-3-(1H-pyrazolo[4,3-c]pyridin-1-yl)bicyclo[3.1.0]hexan-6-yl)propyl)-4-chlorobenzamide], more than 6.70; under `C=C(C)c1cn([C@@H]2C[C@@H]3[C@H](C2)[C@H]3C(CC)NC(=O)c2ccc(Cl)cc2)nn1` (stereo partly drawn) [Compound 262, 4-chloro-N-(1-((1R,3S,5S,6r)-3-(4-(propen-2-yl)-1H-1,2,3-triazol-1-yl)bicyclo[3.1.0]hexan-6-yl)propyl)benzamide], more than 6.70.
Under `O=C(Nc1ccc(Cl)cc1)N[C@H]1[C@@H]2C[C@@H](Oc3ccnc4ccc(F)cc34)C[C@@H]21` [Compound 10, 1-(4-chlorophenyl)-3-((1R,3s,5S,6r)-3-((6-fluoroquinolin-4-yl)oxy)bicyclo[3.1.0]hexan-6-yl)urea] stands more than 6.70; under `C#Cc1ccc2ncnc(N[C@@H]3C[C@@H]4[C@H](C3)[C@H]4[C@@H](CC)NC(=O)c3ccc(Cl)cc3)c2c1` [Compound 337, 4-chloro-N-((R)-1-((1R,3S,5S,6r)-3-((6-ethynylquinazolin-4-yl)amino)bicyclo[3.1.0]hexan-6-yl)propyl)benzamide], more than 6.70; under `CCC(NC(=O)c1ccc(Cl)cc1)[C@H]1[C@@H]2C[C@@H](Oc3cnnc4ccccc34)C[C@@H]21` (stereo partly drawn) [Compound 138, 4-chloro-N-(1-((1R,3r,5S,6r)-3-(cinnolin-4-yloxy)bicyclo[3.1.0]hexan-6-yl)propyl)benzamide], more than 6.70.
As for `CCC(NC(=O)c1ccc(Cl)cc1)[C@H]1[C@@H]2C[C@@H](NS(=O)(=O)C3(C)CC3)C[C@@H]21` (stereo partly drawn) [Compound 160, 4-chloro-N-(1-((1R,3s,5S,6r)-3-((1-methylcyclopropane)-1-sulfonamido)bicyclo[3.1.0]hexan-6-yl)propyl)benzamide], the pIC50 is 5.70 to 6.70.
The compound `CC(NC(=O)c1ccc(C#N)cc1)[C@H]1[C@@H]2C[C@@H](n3cnc4ccc(F)cc4c3=O)C[C@@H]21` (stereo partly drawn) [Compound 108, 4-cyano-N-(1-((1R,3s,5S,6r)-3-(6-fluoro-4-oxoquinazolin-3(4H)-yl)bicyclo[3.1.0]hexan-6-yl)ethyl)benzamide] gave a pIC50 of more than 6.70.
Next, `CCC(NC(=O)c1ccc(Cl)cc1)[C@H]1[C@@H]2C[C@@H](Oc3cc(=O)n(C)c4ccccc34)C[C@@H]21` (stereo partly drawn) [Compound 50, 4-chloro-N-(1-((1R,3s,5S,6r)-3-((1-methyl-2-oxo-1,2-dihydroquinolin-4-yl)oxy)bicyclo[3.1.0]hexan-6-yl)propyl)benzamide]: more than 6.70.
As for `CCC(NC(=O)c1ccc(Cl)cc1)[C@H]1[C@@H]2C[C@@H](n3cnc4cc(Cl)ccc4c3=O)C[C@@H]21` (stereo partly drawn) [Compound 53, 4-chloro-N-(1-((1R,3s,5S,6r)-3-(7-chloro-4-oxoquinazolin-3(4H)-yl)bicyclo[3.1.0]hexan-6-yl)propyl)benzamide], the pIC50 is more than 6.70.
Next, `CC[C@@H](NC(=O)C1(C(F)(F)F)CC1)[C@H]1[C@@H]2C[C@@H](n3cnc4cc(F)c(F)cc43)C[C@@H]21` [Compound 352, N-((R)-1-((1R,3S,5S,6r)-3-(5,6-difluoro-1H-benzo[d]imidazol-1-yl)bicyclo[3.1.0]hexan-6-yl)propyl)-1-(trifluoromethyl)cyclopropane-1-carboxamide]: 5.70 to 6.70.
Under `CC[C@@H](NC(=O)c1ccc(Cl)cc1)[C@H]1[C@@H]2C[C@@H](c3ncnc4ccc(F)cc34)C[C@@H]21` [Compound 279, 4-chloro-N-((R)-1-((1R,3S,5S,6r)-3-(6-fluoroquinazolin-4-yl)bicyclo[3.1.0]hexan-6-yl)propyl)benzamide] stands more than 6.70; under `CCC(NC(=O)c1ccc(Cl)cc1)[C@H]1[C@@H]2C[C@@H](n3cc4cc(F)ccc4n3)C[C@@H]21` (stereo partly drawn) [Compound 207, 4-chloro-N-(1-((1R,3s,5S,6r)-3-(5-fluoro-2H-indazol-2-yl)bicyclo[3.1.0]hexan-6-yl)propyl)benzamide], more than 6.70; under `CC[C@@H](NC(=O)c1ccc(Cl)cc1)[C@H]1[C@@H]2C[C@@H](n3c(C(F)(F)F)nc4ccc(F)cc43)C[C@@H]21` [Compound 276, 4-chloro-N-((R)-1-((1R,3S,5S,6r)-3-(6-fluoro-2-(trifluoromethyl)-1H-benzo[d]imidazol-1-yl)bicyclo[3.1.0]hexan-6-yl)propyl)benzamide], 5.70 to 6.70.
Next, `CCC(NC(=O)c1ccc(Cl)cc1)[C@H]1[C@@H]2C[C@@H](N3C(=O)CC(C)(C)C3=O)C[C@@H]21` (stereo partly drawn) [Compound 122, 4-chloro-N-(1-((1R,3s,5S,6r)-3-(3,3-dimethyl-2,5-dioxopyrrolidin-1-yl)bicyclo[3.1.0]hexan-6-yl)propyl)benzamide]: 5.30 to 5.70.
`CC[C@@H](NC(=O)c1ccc(Cl)cc1)[C@H]1[C@@H]2C[C@@H](c3cnn(C4CC4)c3)C[C@@H]21` [Compound 292, 4-chloro-N—((R)-1-((1R,3S,5S, 6r)-3-(1-cyclopropyl-1H-pyrazol-4-yl)bicyclo[3.1.0]hexan-6-yl)propyl)benzamide] gave a pIC50 of more than 6.70.
Take `CC(NC(=O)c1ccc(C#N)cc1)[C@H]1[C@@H]2C[C@@H](n3ncc(=O)c4ccccc43)C[C@@H]21` (stereo partly drawn) [Compound 136, 4-cyano-N-(1-((1R,3s,5S,6r)-3-(4-oxocinnolin-1(4H)-yl)bicyclo[3.1.0]hexan-6-yl)ethyl)benzamide]: the negative logarithm of the IC50 (pIC50) is 5.70 to 6.70.
Compound `CCC(NC(=O)c1ccc(Cl)cc1)C1[C@H]2CC(Oc3cnnc4ccccc34)C[C@@H]12` (stereo partly drawn) [Compound 46, 4-chloro-N-(1-((1R,3s,5S,6r)-3-(cinnolin-4-yloxy)bicyclo[3.1.0]hexan-6-yl)propyl)benzamide] showed a negative logarithm of the IC50 (pIC50) of more than 6.70.
Next, `CCC(NC(=O)c1ccc(Cl)cc1)[C@H]1[C@@H]2C[C@@H](Oc3cncc(F)c3)C[C@@H]21` (stereo partly drawn) [Compound 58, 4-chloro-N-(1-((1R,3s,5S,6r)-3-((5-fluoropyridin-3-yl)oxy)bicyclo[3.1.0]hexan-6-yl)propyl)benzamide]: more than 6.70; `O=C(NC(CCO)[C@H]1[C@@H]2C[C@@H](Oc3ncnc4ccc(F)cc34)C[C@@H]21)c1ccc(Cl)cc1` (stereo partly drawn) [Compound 137, 4-chloro-N-(1-((1R,3s, 5S, 6r)-3-((6-fluoroquinazolin-4-yl)oxy)bicyclo[3.1.0]hexan-6-yl)-3-hydroxypropyl)benzamide]: 5.30 to 5.70; `CCC(NC(=O)c1ccc(Cl)cc1)[C@H]1[C@@H]2C[C@@H](n3cnc4cc(F)ccc4c3=O)C[C@@H]21` (stereo partly drawn) [Compound 34, 4-chloro-N-(1-((1R,3s,5S,6r)-3-(7-fluoro-4-oxoquinazolin-3(4H)-yl)bicyclo[3.1.0]hexan-6-yl)propyl)benzamide]: more than 6.70.
Under `CCC(NC(=O)c1ccc(Cl)cc1)[C@H]1[C@@H]2C[C@@H](Nc3ccc(Cl)cc3[N+](=O)[O-])C[C@@H]21` (stereo partly drawn) [Compound 270, 4-chloro-N-(1-((1R,3s,5S,6r)-3-((4-chloro-2-nitrophenyl)amino)bicyclo[3.1.0]hexan-6-yl)propyl)benzamide] stands more than 6.70; under `O=C(Cc1ccc(Cl)cc1)NC1[C@H]2CC(Oc3ccnc4ccccc34)C[C@@H]12` (stereo partly drawn) [Compound 30, 2-(4-chlorophenyl)-N-((1R,5S)-3-(quinolin-4-yloxy)bicyclo[3.1.0]hexan-6-yl)acetamide], more than 6.70.
In turn, `O=C(NC(CCO)[C@H]1[C@@H]2C[C@@H](n3ncc(=O)c4ccccc43)C[C@@H]21)c1ccc(Cl)cc1` (stereo partly drawn) [Compound 140, 4-chloro-N-(3-hydroxy-1-((1R,3s, 5S, 6r)-3-(4-oxocinnolin-1(4H)-yl)bicyclo[3.1.0]hexan-6-yl)propyl)benzamide] showed a pIC50 of more than 6.70.
Compound `C[C@@H](C(=O)Nc1ccc(Cl)cc1)[C@H]1[C@@H]2C[C@@H](n3cnc4cc(F)c(F)cc43)C[C@@H]21` [Compound 298, (R)-N-(4-chlorophenyl)-2-((1R,3S,5S,6r)-3-(5,6-difluoro-1H-benzo[d]imidazol-1-yl)bicyclo[3.1.0]hexan-6-yl)propanamide] had a negative logarithm of the IC50 (pIC50) of more than 6.70.
Next, `CCC(NC(=O)c1ccc(Cl)cc1)[C@H]1[C@@H]2C[C@@H](n3cncn3)C[C@@H]21` (stereo partly drawn) [Compound 81, N-(1-((1R,3s,5S,6r)-3-(1H-1,2,4-triazol-1-yl)bicyclo[3.1.0]hexan-6-yl)propyl)-4-chlorobenzamide]: 5.70 to 6.70; `CCC(NC(=O)c1ccc(Cl)cc1)[C@H]1[C@@H]2C[C@@H](n3nc4ccccc4n3)C[C@@H]21` (stereo partly drawn) [Compound 100, N-(1-((1R,3s,5S,6r)-3-(2H-benzo[d][1,2,3]triazol-2-yl)bicyclo[3.1.0]hexan-6-yl)propyl)-4-chlorobenzamide]: more than 6.70.

As a reminder, the pIC50 is the IC50 on a negative log10 scale, so that one unit is a factor of ten. Low readings indicate a large IC50, high ones a small IC50.
